How the values were obtained:
[1] = tested on: neuraminidase (NA) of variant influenza A (H3N2)v viruses; assay type: biochemical, influenza A (H3N2)v virus
[2] = tested on: neuraminidase (NA) of influenza A (H1N1)pdm09 viruses; assay type: biochemical, influenza A (H1N1)pdm09 virus
[3] = tested on: neuraminidase (NA) of influenza B viruses; assay type: biochemical, influenza B virus

Structure (SMILES)	fold change in IC50 of outliers [1]	Fold change in IC50 of test viruses, Approach #1 [2]	Fold change in IC50 of test viruses, Approach #2 [2]	Fold change in IC50 of test viruses, Approach #3 [2]	fold change in IC50 of outliers [2]	Fold change in IC50 of test viruses, Approach #2 [3]
CCOC(=O)C1=C[C@@H](OC(CC)CC)[C@H](NC(C)=O)[C@@H](N)C1 [Oseltamivir, Oseltamivir (carboxylate)]	5·30 (35) fold	319–1474 (8) fold	182–1403 (8) fold	213–1637 (8) fold	38-27-294·72 (213–1637) fold	5–8 (2) fold
CC(=O)N[C@H]1[C@H]([C@H](O)[C@H](O)CO)OC(C(=O)O)=C[C@@H]1N=C(N)N [Zanamivir, zanamivir]	35·74 (70) fold	–	–	–	–	7 (1) fold
